Values after ≈ are worked out from the molar mass of the structure shown. Where two headings read alike, the source gives them in different places.
What was measured:
human red blood cells = test: Hemolysis assay; assay type: cell-based; settings: 1% hematocrit in PBS pH 7.4, 30 min at 23 °C, from Figure 4
Method: Dendrimer-induced hemolysis was measured as previously reported. Briefly, human red blood cells obtained from healthy volunteers, were suspended in phosphate buffered saline (PBS, pH 7.4). Prepared suspension of 1% hematocrit was incubated with serial concentration of dendrimers for 30 min at 23 °C. After centrifugation (4,000 rpm, 5 min) the absorbance of supernatant was measured at 540 nm (Spectrostar Omega, BMG Labtech, Ortenberg, Germany). A value of 100% hemolysis was determined by incubation of erythrocytes with double-distilled water (30 min at 23 °C). In a control experiment, cells were incubated in buffer without peptide and absorbance at 540 nm value was used as a blank:
A: Absorbance of the samples incubated with dendrimers;
Ab: Absorbance of the blank samples;
A100%: Absorbance of the reference;
Ac: Absorbance of red blood cells in PBS, hematocrit 1%.

S. aureus ATCC 25923 = test: microbe, parasite or virus in culture
Method: (§1) The bacteria Staphylococcus aureus ATCC 25923, Staphylococcus aureus ATCC 43300,Escherichia coli ATCC 25922 and Pseudomonas aeruginosa ATCC 27853 were cultivated on tryptone-soy agar (TSA; Oxoid) for 24 h at 37 °C. Broth microdilution susceptibility tests were performed as described in the Committee Laboratory Standards (CLSI) reference method M07-A8 [41]. Bacteria inocula (5 µL) containing 10^6 CFU/mL were used. The final concentration of dendrimers ranged from 256 to 2 µg/mL, polymyxin B and penicillin G from 8 to 0,15 µg/mL (or 5.8 to 0.1 µM and 21.5 to 0.4 µM, respectively for polymyxin B and penicillin G) were the reference compounds. The plates were incubated at 35 °C and were read after 18 or 24 h depending on the bacterial strain. Minimal Inhibitory Concentrations (MICs) were defined as the lowest drug concentration that reduced the growth by 100%.

S. aureus ATCC 43300 = tested on: S. aureus ATCC 43300
Method: as §1

P. aeruginosa ATCC 27853 = tested on: P. aeruginosa ATCC 27853
Method: as §1

E. coli ATCC 25922 [1] = tested on: E. coli ATCC 25922
Method: as §1

E. coli ATCC 25922 [2] = assay type: cell-based, Escherichia coli; settings: for Activity (MIC) at 200 µM Na+ or K+ concentration / Change of bioactivity on increase of Ca2+ and Mg2+ concentration / Sensitivity of MIC to increase of Na+ or K+ concentration: E. coli ATCC 25922; for Activity (MIC) at 200 µM Na+ or K+ concentration / Sensitivity of MIC to increase of Na+ or K+ concentration: triplicate; for Change of bioactivity on increase of Ca2+ and Mg2+ concentration: Ca2+ and Mg2+ up to 5 mM; for Sensitivity of MIC to increase of Na+ or K+ concentration: Na+ or K+ up to 100 µM, CAMHB with added NaCl or KCl
Method: as §1
The effect of salt concentration on the antimicrobial activity of two dendrimers was tested by determining the MICs under a variety of cations concentrations. CAMHB used in the assay was altered by the addition of salt. NaCl or KCl were added to the media to a final concentrations of 10, 50, 100, 200, 500 mM, wheareas CaCl2 or MgCl2 were added to the media to a final concentrations of 0.5, 1.5, 2.5, 5.5, 10.5, and 20.5 mM. Additionally, similar test was performed using MHB (without Ca^2+, Mg^2+) for divalent cations Ca^2+ and Mg^2+. Experiment was performed in triplicate.

[3] = broth microdilution CLSI M07-A8, CAMHB with 0.5 mM Ca2+ and Mg2+, no K+ and Na+, 35 °C, read after 18 or 24 h, MIC = lowest concentration reducing growth by 100%
[4] = methicillin-resistant strain, broth microdilution CLSI M07-A8, CAMHB with 0.5 mM Ca2+ and Mg2+, 35 °C, 18 or 24 h
[5] = broth microdilution CLSI M07-A8, CAMHB with 0.5 mM Ca2+ and Mg2+, 35 °C, 18 or 24 h

## NCCCC[C@H](NC(=O)OCc1ccccc1Cl)C(=O)NCCNC(=O)CCN(CCC[C@@H](C(=O)Nc1cccnc1)N(CCC(=O)NCCNC(=O)[C@H](CCCCN)NC(=O)OCc1ccccc1Cl)CCC(=O)NCCNC(=O)[C@H](CCCCN)NC(=O)OCc1ccccc1Cl)CCC(=O)NCCNC(=O)[C@H](CCCCN)NC(=O)OCc1ccccc1Cl [Dendrimer 3a]
Human red blood cells
  Hemotoxicity (level): much lower toxicity and low
S. aureus ATCC 25923; [3]
  Minimal inhibitory concentration (MIC), S. aureus ATCC 25923: 2.85 µM (≈ 5.28 µg/mL)
S. aureus ATCC 43300; [4]
  Minimal inhibitory concentration (MIC), S. aureus ATCC 43300: >252 µM
P. aeruginosa ATCC 27853; [5]
  Minimal inhibitory concentration (MIC), P. aeruginosa ATCC 27853: >252 µM
E. coli ATCC 25922 [1]; [5]
  Minimal inhibitory concentration (MIC), E. coli ATCC 25922: >252 µM

## NCCCC[C@H](NC(=O)OCc1ccccc1Cl)C(=O)NCCNC(=O)CCN(CCC[C@@H](C(=O)NCCc1c[nH]c2ccccc12)N(CCC(=O)NCCNC(=O)[C@H](CCCCN)NC(=O)OCc1ccccc1Cl)CCC(=O)NCCNC(=O)[C@H](CCCCN)NC(=O)OCc1ccccc1Cl)CCC(=O)NCCNC(=O)[C@H](CCCCN)NC(=O)OCc1ccccc1Cl [Dendrimer 3b]
S. aureus ATCC 25923; [3]
  Minimal inhibitory concentration (MIC), S. aureus ATCC 25923: 1.87 µM (≈ 3.59 µg/mL)
E. coli ATCC 25922 [2]; ATCC 25922, 24 h
  MIC in presence of Ca2+: 119.8 µM
E. coli ATCC 25922 [2]
  Activity (MIC) at 200 µM Na+ or K+ concentration: retained much activity
  Change of bioactivity on increase of Ca2+ and Mg2+ concentration: slow decrease
  Sensitivity of MIC to increase of Na+ or K+ concentration: not sensitive
S. aureus ATCC 43300; [4]
  Minimal inhibitory concentration (MIC), S. aureus ATCC 43300: 12.1 µM (≈ 23.2 µg/mL)
P. aeruginosa ATCC 27853; [5]
  Minimal inhibitory concentration (MIC), P. aeruginosa ATCC 27853: 51 µM (≈ 97.8 µg/mL)
E. coli ATCC 25922 [1]; [5]
  Minimal inhibitory concentration (MIC), E. coli ATCC 25922: 12.1 µM (≈ 23.2 µg/mL)

## NCCCC[C@H](NC(=O)OCc1ccccc1Cl)C(=O)NCCNC(=O)CCN(CCC[C@@H](C(=O)NCCc1cnc[nH]1)N(CCC(=O)NCCNC(=O)[C@H](CCCCN)NC(=O)OCc1ccccc1Cl)CCC(=O)NCCNC(=O)[C@H](CCCCN)NC(=O)OCc1ccccc1Cl)CCC(=O)NCCNC(=O)[C@H](CCCCN)NC(=O)OCc1ccccc1Cl [Dendrimer 3c]
S. aureus ATCC 25923; ATCC 25923, 24 h
  Minimal inhibitory concentration (MIC), S. aureus ATCC 25923: 24.7 µM (≈ 46.2 µg/mL)
S. aureus ATCC 43300; ATCC 43300, 24 h
  Minimal inhibitory concentration (MIC), S. aureus ATCC 43300: 141 µM (≈ 264 µg/mL)
P. aeruginosa ATCC 27853; ATCC 27853, 24 h
  Minimal inhibitory concentration (MIC), P. aeruginosa ATCC 27853: 141 µM (≈ 264 µg/mL)
E. coli ATCC 25922 [1]; ATCC 25922, 24 h
  Minimal inhibitory concentration (MIC), E. coli ATCC 25922: 141 µM (≈ 264 µg/mL)

## CCCCCCCCCCCCNC(=O)[C@H](CCCN(CCC(=O)NCCNC(=O)[C@H](CCCCN)NC(=O)OCc1ccccc1Cl)CCC(=O)NCCNC(=O)[C@H](CCCCN)NC(=O)OCc1ccccc1Cl)N(CCC(=O)NCCNC(=O)[C@H](CCCCN)NC(=O)OCc1ccccc1Cl)CCC(=O)NCCNC(=O)[C@H](CCCCN)NC(=O)OCc1ccccc1Cl [Dendrimer 3d]
S. aureus ATCC 25923; ATCC 25923, 24 h
  Minimal inhibitory concentration (MIC), S. aureus ATCC 25923: 1.85 µM (≈ 3.59 µg/mL)
E. coli ATCC 25922 [1]; ATCC 25922, 24 h
  Minimal inhibitory concentration (MIC), E. coli ATCC 25922: 1.85 µM (≈ 3.59 µg/mL)

## N[C@@H](CCCCNC(=O)OCc1ccccc1Cl)C(=O)NCCNC(=O)CCN(CCC[C@@H](C(=O)Nc1cccnc1)N(CCC(=O)NCCNC(=O)[C@@H](N)CCCCNC(=O)OCc1ccccc1Cl)CCC(=O)NCCNC(=O)[C@@H](N)CCCCNC(=O)OCc1ccccc1Cl)CCC(=O)NCCNC(=O)[C@@H](N)CCCCNC(=O)OCc1ccccc1Cl [Dendrimer 3e]
Human red blood cells
  Hemotoxicity (level): highest hemotoxicity and high
S. aureus ATCC 25923; [3]
  Minimal inhibitory concentration (MIC), S. aureus ATCC 25923: 16.6 µM (≈ 30.7 µg/mL)
S. aureus ATCC 43300; [4]
  Minimal inhibitory concentration (MIC), S. aureus ATCC 43300: 142 µM (≈ 263 µg/mL)
P. aeruginosa ATCC 27853; [5]
  Minimal inhibitory concentration (MIC), P. aeruginosa ATCC 27853: 142 µM (≈ 263 µg/mL)
E. coli ATCC 25922 [1]; [5]
  Minimal inhibitory concentration (MIC), E. coli ATCC 25922: 142 µM (≈ 263 µg/mL)

## N[C@@H](CCCCNC(=O)OCc1ccccc1Cl)C(=O)NCCNC(=O)CCN(CCC[C@@H](C(=O)NCCc1c[nH]c2ccccc12)N(CCC(=O)NCCNC(=O)[C@@H](N)CCCCNC(=O)OCc1ccccc1Cl)CCC(=O)NCCNC(=O)[C@@H](N)CCCCNC(=O)OCc1ccccc1Cl)CCC(=O)NCCNC(=O)[C@@H](N)CCCCNC(=O)OCc1ccccc1Cl [Dendrimer 3f]
S. aureus ATCC 25923; [3]
  Minimal inhibitory concentration (MIC), S. aureus ATCC 25923: 0.93 µM (≈ 1.78 µg/mL)
E. coli ATCC 25922 [2]; ATCC 25922, 24 h
  MIC in presence of Mg2+: 119.8 µM
E. coli ATCC 25922 [2]
  Activity (MIC) at 200 µM Na+ or K+ concentration: retained much activity
  Change of bioactivity on increase of Ca2+ and Mg2+ concentration: slow decrease
  Sensitivity of MIC to increase of Na+ or K+ concentration: not sensitive
S. aureus ATCC 43300; [4]
  Minimal inhibitory concentration (MIC), S. aureus ATCC 43300: 20.4 µM (≈ 39.1 µg/mL)
P. aeruginosa ATCC 27853; [5]
  Minimal inhibitory concentration (MIC), P. aeruginosa ATCC 27853: 60 µM (≈ 115 µg/mL)
E. coli ATCC 25922 [1]; [5]
  Minimal inhibitory concentration (MIC), E. coli ATCC 25922: 7.9 µM (≈ 15.2 µg/mL)

## N[C@@H](CCCCNC(=O)OCc1ccccc1Cl)C(=O)NCCNC(=O)CCN(CCC[C@@H](C(=O)NCCc1cnc[nH]1)N(CCC(=O)NCCNC(=O)[C@@H](N)CCCCNC(=O)OCc1ccccc1Cl)CCC(=O)NCCNC(=O)[C@@H](N)CCCCNC(=O)OCc1ccccc1Cl)CCC(=O)NCCNC(=O)[C@@H](N)CCCCNC(=O)OCc1ccccc1Cl [Dendrimer 3g]
S. aureus ATCC 25923; ATCC 25923, 24 h
  Minimal inhibitory concentration (MIC), S. aureus ATCC 25923: 51 µM (≈ 95.3 µg/mL)
S. aureus ATCC 43300; ATCC 43300, 24 h
  Minimal inhibitory concentration (MIC), S. aureus ATCC 43300: 16.4 µM (≈ 30.7 µg/mL)
P. aeruginosa ATCC 27853; ATCC 27853, 24 h
  Minimal inhibitory concentration (MIC), P. aeruginosa ATCC 27853: 211 µM (≈ 394 µg/mL)
E. coli ATCC 25922 [1]; ATCC 25922, 24 h
  Minimal inhibitory concentration (MIC), E. coli ATCC 25922: 211 µM (≈ 394 µg/mL)

## CCCCCCCCCCCCNC(=O)[C@H](CCCN(CCC(=O)NCCNC(=O)[C@@H](N)CCCCNC(=O)OCc1ccccc1Cl)CCC(=O)NCCNC(=O)[C@@H](N)CCCCNC(=O)OCc1ccccc1Cl)N(CCC(=O)NCCNC(=O)[C@@H](N)CCCCNC(=O)OCc1ccccc1Cl)CCC(=O)NCCNC(=O)[C@@H](N)CCCCNC(=O)OCc1ccccc1Cl [Dendrimer 3h]
S. aureus ATCC 25923; ATCC 25923, 24 h
  Minimal inhibitory concentration (MIC), S. aureus ATCC 25923: 3.7 µM (≈ 7.19 µg/mL)
S. aureus ATCC 43300; ATCC 43300, 24 h
  Minimal inhibitory concentration (MIC), S. aureus ATCC 43300: 1.85 µM (≈ 3.59 µg/mL)
P. aeruginosa ATCC 27853; ATCC 27853, 24 h
  Minimal inhibitory concentration (MIC), P. aeruginosa ATCC 27853: 32 µM (≈ 62.2 µg/mL)
E. coli ATCC 25922 [1]; ATCC 25922, 24 h
  Minimal inhibitory concentration (MIC), E. coli ATCC 25922: 7.9 µM (≈ 15.4 µg/mL)

## CC1(C)S[C@@H]2[C@H](NC(=O)Cc3ccccc3)C(=O)N2[C@H]1C(=O)O [Penicillin G, reference compound]
S. aureus ATCC 25923; Staphylococcus aureus, ATCC25923, read-out: Minimal inhibitory concentration (MIC), S. aureus ATCC 25923
  MIC: 6.6 µM (≈ 2.21 µg/mL)
